Reference: patent publication US20240116985A1, “STAPLED PEPTIDES AND METHODS THEREOF” (priority 2020, published 2024)

Key:
[1] = target: T1, full-length B-Catenin (Uniprot ID P35222) (Homo sapiens, UniProt P35222); experiment: Alphascreen binding assay (beta-catenin / biotin-TCF4 10-53)
T1 construct: 65 nM full-length B-Catenin (Uniprot ID P35222)
T1 sequence (P35222 1-781): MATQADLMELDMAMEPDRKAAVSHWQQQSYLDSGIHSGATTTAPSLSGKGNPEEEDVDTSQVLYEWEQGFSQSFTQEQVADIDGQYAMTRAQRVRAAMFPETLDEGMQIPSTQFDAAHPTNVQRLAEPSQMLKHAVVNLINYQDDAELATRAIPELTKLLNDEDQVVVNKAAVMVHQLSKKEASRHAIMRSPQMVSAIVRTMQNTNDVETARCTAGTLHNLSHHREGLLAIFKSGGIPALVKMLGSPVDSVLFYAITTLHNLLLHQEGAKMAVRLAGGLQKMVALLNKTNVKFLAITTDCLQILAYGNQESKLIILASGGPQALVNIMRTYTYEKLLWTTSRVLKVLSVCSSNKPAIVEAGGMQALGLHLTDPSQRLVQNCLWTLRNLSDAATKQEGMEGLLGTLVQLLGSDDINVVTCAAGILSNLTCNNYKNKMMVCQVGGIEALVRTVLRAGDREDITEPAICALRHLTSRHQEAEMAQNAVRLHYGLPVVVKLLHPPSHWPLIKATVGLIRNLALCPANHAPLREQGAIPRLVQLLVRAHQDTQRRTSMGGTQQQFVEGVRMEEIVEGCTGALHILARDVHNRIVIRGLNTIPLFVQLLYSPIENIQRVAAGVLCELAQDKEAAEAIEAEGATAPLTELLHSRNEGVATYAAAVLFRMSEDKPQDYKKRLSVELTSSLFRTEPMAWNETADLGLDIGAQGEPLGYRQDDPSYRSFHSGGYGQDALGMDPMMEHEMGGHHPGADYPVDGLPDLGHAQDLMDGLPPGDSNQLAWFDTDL
Protocol: In some embodiments, an assay is an Alphascreen binding assay. A useful protocol is described below as an example.
Alphascreen binding assay: Using the AlphaScreen Histidine (Nickel Chelate) Detection Kit (PerkinElmer), peptide solutions were prepared in buffer (50 mM Tris pH 8.0, 250 mM NaCl, 2% glycerol, 0.03% Tween-20, 0.01% TritonX-100, 0.1% BSA w/v) using a 3-fold serial dilution from 10 uM to 5 nM. Probe solution (65 nM full-length B-Catenin (Uniprot ID P35222), mixed with 10 nM biotin labeled TCF4 residues 10-53 (Uniprot ID Q9NQB0) peptide in buffer) was prepared and 4 uL per well was plated in a white polystyrene 384-well plate (Corning). Equal volume of the titrated peptide was added to the plate and incubated for 15 minutes at 20° C. Then 4 uL of donor and 4 uL acceptor beads at 10 ug/mL were added to the plate, for a 16 uL reaction pool and protected from light for 60 minutes at 20° C. prior to read. Reads were performed on a CLARIOstar plate reader (BMG Labtech) in duplicate, and data were fitted to a 1:1 binding model with hill slope using an in-house script. All provided concentrations are final concentrations.

[2] = CHI Log D procedure; format: physicochemical; conditions: for CHI Log D: pH 7.4

Q: Which EC50 [1] does the source give for `CC(=O)N1CCC[C@]12CC=CCCCC1(CCCC=CCCCCCC[C@@](C)(C(=O)N[C@@H](Cc3ccccc3)C(=O)N[C@@](C)(Cc3c[nH]c4ccccc34)C(=O)N[C@@H](CCC(N)=O)C(N)=O)NC(=O)[C@H](C(C)C)NC(=O)[C@H](Cc3ccccc3)NC(=O)[C@H](C)NC(=O)[C@H](C)NC(=O)[C@H](CCC(=O)O)NC(=O)[C@H](CC(=O)O)NC1=O)NC(=O)[C@H](C)NC(=O)[C@H](CC(=O)O)NC2=O` (stereo partly drawn) [I-136, Ac-PL3-Asp-Ala-B5-Asp-Glu-Ala-Ala-Phe-Val-S8-Phe-aMeW-Gln-NH2] here?
A: The EC50 was 3.3 µM.

Q: And the “CHI Log D” value [2]?
A: The value was 2.136.

Q: For `CC(=O)N1CCC[C@]12CC=CCCCC1(CCCC=CCCCCCC[C@@](C)(C(=O)N[C@@H](Cc3ccccc3)C(=O)N[C@@H](Cc3c[nH]c4ccccc34)C(=O)N[C@@H](CCC(N)=O)C(N)=O)NC(=O)[C@H](C(C)C)NC(=O)[C@H](Cc3ccccc3)NC(=O)[C@H](C)NC(=O)[C@H](C)NC(=O)[C@H](Cc3ccc(F)c(F)c3)NC(=O)[C@H](CC(=O)O)NC1=O)NC(=O)[C@H](C)NC(=O)[C@H](CC(=O)O)NC2=O` (stereo partly drawn) [I-259, Ac-PL3-Asp-Ala-B5-Asp-34FF-Ala-Ala-Phe-Val-S8-Phe-Trp-Gln-NH2], which EC50 [1] is on record?
A: Its EC50 is 4.18 µM.

Q: And the chromatographic logD ([2]; pH 7.4, CHI Log D)?
A: Its chromatographic logD is 2.9.

Q: Which EC50 [1] does the source give for `CC(=O)N1CCC[C@]12CC=CCCCC1(CCCC=CCCCCCC[C@@](C)(C(=O)N[C@@H](Cc3ccc(C(F)(F)F)cc3)C(=O)N[C@@H](Cc3c[nH]c4ccccc34)C(=O)N[C@@H](CCC(N)=O)C(N)=O)NC(=O)[C@H](C(C)C)NC(=O)[C@H](Cc3ccccc3)NC(=O)[C@H](C)NC(=O)[C@H](C)NC(=O)[C@H](CC(=O)O)NC(=O)[C@H](CC(=O)O)NC1=O)NC(=O)[C@H](C)NC(=O)[C@H](CC(=O)O)NC2=O` (stereo partly drawn) [I-254, Ac-PL3-Asp-Ala-B5-Asp-Asp-Ala-Ala-Phe-Val-S8-4F3MeF-Trp-Gln-NH2] here?
A: The EC50 was 1.96 µM.

Q: And the “CHI Log D” value [2]?
A: Its value is 2.232.

Q: With `CC(=O)N1CCC[C@]12CC=CCCCC1(CCCC=CCCCCCC[C@@](C)(C(=O)N[C@@H](Cc3ccccc3)C(=O)N[C@@H](Cc3c[nH]c4ccccc34)C(=O)N[C@@H](CCC(N)=O)C(N)=O)NC(=O)[C@H](C(C)C)NC(=O)[C@H](Cc3ccccc3)NC(=O)[C@H](C)NC(=O)[C@H](C)NC(=O)[C@H](CCC(=O)O)NC(=O)[C@H](CC(=O)O)NC1=O)NC(=O)[C@H](C)NC(=O)[C@H](Cc1c[nH]cn1)NC2=O` (stereo partly drawn) [I-315, Ac-PL3-His-Ala-B5-Asp-Glu-Ala-Ala-Phe-Val-S8-Phe-Trp-Gln-NH2] as the molecule, how does the EC50 [1] read?
A: Its EC50 is 9.9 µM.

Q: What about the “CHI Log D” value [2] of the same molecule?
A: Its value is 2.359.

Q: For `COc1ccc(C[C@@H]2NC(=O)[C@H](C)NC(=O)[C@H](C)NC(=O)[C@H](CCC(=O)O)NC(=O)[C@H](CC(=O)O)NC(=O)C3(CCCC=CCCCCCC[C@@](C)(C(=O)N[C@@H](Cc4ccccc4)C(=O)N[C@@H](Cc4c[nH]c5ccccc45)C(=O)N[C@@H](CCC(N)=O)C(N)=O)NC(=O)[C@H](C(C)C)NC2=O)CCCC=CC[C@]2(CCCN2C(C)=O)C(=O)N[C@@H](CC(=O)O)C(=O)N[C@@H](C)C(=O)N3)cc1` (stereo partly drawn) [I-218, Ac-PL3-Asp-Ala-B5-Asp-Glu-Ala-Ala-MeTyr-Val-S8-Phe-Trp-Gln-NH2], which EC50 [1] is on record?
A: The EC50 was 0.09 µM.
